Test system: CYP1A1 mRNA in primary human hepatocytes
Assay: CYP1A1 mRNA expression in primary human hepatocytes
Format: cell-based
[1] = hepatocyte culture LH45, 10 µM, 24 h
[2] = hepatocyte culture LH45, 50 µM, 24 h
[3] = hepatocyte culture LH46, 10 µM, 24 h
[4] = hepatocyte culture LH46, 50 µM, 24 h
[5] = hepatocyte culture LH47, 50 µM, 24 h
[6] = hepatocyte culture LH48 (so in the source), 50 µM, 24 h

SMILES | CYP1A1 mRNA fold induction over the vehicle-treated cells, LH45 (10 µM) [fold] | CYP1A1 mRNA fold induction over the vehicle-treated cells, LH46 (10 µM) [fold] | CYP1A1 mRNA fold induction over the vehicle-treated cells, LH45 (50 µM) [fold] | CYP1A1 mRNA fold induction over the vehicle-treated cells, LH46 (50 µM) [fold] | CYP1A1 mRNA fold induction over the vehicle-treated cells, LH47 (50 µM) [fold] | CYP1A1 mRNA fold induction over the vehicle-treated cells, LH48 (50 µM) [fold] | CYP1A1 mRNA fold induction over the vehicle-treated cells, LH45 [1] [fold] | CYP1A1 mRNA fold induction over the vehicle-treated cells, LH45 [2] [fold] | CYP1A1 mRNA fold induction over the vehicle-treated cells, LH46 [3] [fold] | CYP1A1 mRNA fold induction over the vehicle-treated cells, LH46 [4] [fold] | CYP1A1 mRNA fold induction over the vehicle-treated cells, LH47 [5] [fold] | CYP1A1 mRNA fold induction over the vehicle-treated cells, LH48 [6] [fold]
C[C@@H]1O[C@@H](OC[C@H]2O[C@@H](Oc3cc4c(O)cc(O)cc4[o+]c3-c3ccc(O)c(O)c3)[C@H](O)[C@@H](O)[C@@H]2O)[C@H](O)[C@H](O)[C@H]1O.[Cl-] [CYA-2, cyanidin-3-O-rutinoside chloride] | 2.34 ± 0.28 | 0.55 ± 0.03 | 0.69 ± 0.25 | 0.91 ± 0.04 | 0.57 ± 0.09 | 0.07 ± 0.02 |  |  |  |  |  | 
OC[C@H]1O[C@@H](O[C@H]2[C@@H](Oc3cc4c(O)cc(O)cc4[o+]c3-c3ccc(O)c(O)c3)O[C@H](CO)[C@@H](O)[C@@H]2O)[C@H](O)[C@@H](O)[C@@H]1O.[Cl-] [CYA-4, cyanidin-3-O-sophoroside chloride] | 1.31 ± 0.25 | 2.97 ± 0.39 | 0.46 ± 0.03 | 0.28 ± 0.05 | 0.51 ± 0.16 | 0.05 ± 0.02 |  |  |  |  |  | 
Oc1cc(O)c2cc(O[C@@H]3OC[C@H](O)[C@H](O)[C@H]3O)c(-c3ccc(O)c(O)c3)[o+]c2c1.[Cl-] [CYA-5, cyanidin-3-O-arabinoside chloride] | 0.69 ± 0.06 | 0.67 ± 0.07 | 1.16 ± 0.17 | 0.61 ± 0.08 | 0.34 ± 0.11 | 0.07 ± 0.01 |  |  |  |  |  | 
C[C@@H]1O[C@@H](Oc2cc3c(O)cc(O)cc3[o+]c2-c2ccc(O)c(O)c2)[C@H](O)[C@H](O)[C@H]1O.[Cl-] [CYA-6, cyanidin-3-O-rhamnoside chloride] | 0.77 ± 0.12 | 1.19 ± 0.14 | 0.73 ± 0.04 | 1.36 ± 0.03 | 0.31 ±0.03 | 0.07 ± 0.00 |  |  |  |  |  | 
OC[C@H]1O[C@@H](Oc2cc3c(O)cc(O)cc3[o+]c2-c2ccc(O)c(O)c2)[C@H](O)[C@@H](O)[C@H]1O.[Cl-] [CYA-7, cyanidin-3-O-galactoside chloride] | 0.65 ± 0.11 | 2.62 ± 0.41 | 0.34 ± 0.06 | 1.85 ± 0.09 | 0.25 ± 0.02 | 0.05 ± 0.02 |  |  |  |  |  | 
OC[C@H]1O[C@@H](Oc2cc3c(O)cc(O)cc3[o+]c2-c2ccc(O)c(O)c2)[C@H](O[C@@H]2OC[C@@H](O)[C@H](O)[C@H]2O)[C@@H](O)[C@@H]1O.[Cl-] [CYA-8, cyanidin-3-O-sambubioside chloride] | 0.26 ± 0.01 | 1.48 ± 1.14 | 0.20 ± 0.04 | 1.72 ± 0.72 | 2.44 | 0.02 ± 0.00 |  |  |  |  |  | 
OC[C@H]1O[C@@H](Oc2cc3c(O)cc(O)cc3[o+]c2-c2ccc(O)c(O)c2)[C@H](O[C@@H]2OC[C@@H](O)[C@H](O)[C@H]2O)[C@@H](O)[C@H]1O.[Cl-] [CYA-9, cyanidin-3-O-lathyroside chloride] | 0.32 ± 0.12 | 0.91 ± 0.11 | 0.61 ± 0.05 | 1.77 ± 0.49 | 0.11 ± 0.17 | 0.09 ± 0.05 |  |  |  |  |  | 
OC[C@H]1O[C@@H](Oc2cc3c(O)cc(O)cc3[o+]c2-c2cc(O)c(O)c(O)c2)[C@H](O)[C@@H](O)[C@@H]1O.[Cl-] [DEL-1, delphinidin-3-O-glucoside chloride] |  |  |  |  |  |  | 1.80 ± 0.11 | 1.50 ± 0.21 | 1.99 ± 0.12 | 0.80 ± 0.07 | 1.01 ± 0.12 | 0.01 ± 0.00
C[C@@H]1O[C@@H](OC[C@H]2O[C@@H](Oc3cc4c(O)cc(O)cc4[o+]c3-c3cc(O)c(O)c(O)c3)[C@H](O)[C@@H](O)[C@@H]2O)[C@H](O)[C@H](O)[C@H]1O.[Cl-] [DEL-2, delphinidin-3-O-rutinoside chloride] |  |  |  |  |  |  | 1.53 ± 0.36 | 0.53 ± 0.11 | 1.34 ± 0.10 | 0.68 ± 0.01 | 0.23 ± 0.05 | 0.02 ± 0.01
OCC1OC(Oc2cc3c(OC4OC(CO)C(O)C(O)C4O)cc(O)cc3[o+]c2-c2cc(O)c(O)c(O)c2)C(O)C(O)C1O.[Cl-] (stereo not drawn) [DEL-3, delphinidin-3,5-di-O-glucoside chloride] |  |  |  |  |  |  | 0.82 ± 0.02 | 1.70 ± 3.26 | 0.85 ± 0.06 | 1.14 ± 0.21 | 0.39 ± 0.06 | 0.02 ± 0.01
OC[C@H]1O[C@@H](Oc2cc3c(O)cc(O)cc3[o+]c2-c2cc(O)c(O)c(O)c2)[C@H](O[C@@H]2OC[C@@H](O)[C@H](O)[C@H]2O)[C@@H](O)[C@@H]1O.[Cl-] [DEL-4, delphinidin-3-O-sambubioside chloride] |  |  |  |  |  |  | 0.26 ± 0.21 | 0.34 ± 0.09 | 1.11 ± 0.20 | 1.31 ± 0.05 | 0.21 ± 0.26 | 0.07 ± 0.01
C[C@@H]1O[C@@H](Oc2cc3c(O)cc(O)cc3[o+]c2-c2cc(O)c(O)c(O)c2)[C@H](O)[C@H](O)[C@H]1O.[Cl-] [DEL-5, delphinidin-3-O-rhamnoside chloride] |  |  |  |  |  |  | 0.48 ± 0.01 | 0.40 ± 0.09 | 0.98 ± 0.15 | 1.19 ± 0.18 | 0.26 ± 0.01 | 0.01 ± 0.01

Reference: publication PMC3759295 (Toxicology letters, 2013)
